Test [1] relates to Influenza A/WSN. Put plainly: Plaque reduction test on primary HEZ. As to conditions: mean of two experiments. (Plaque reduction counts the foci of infection that form in a cell layer.)
For test [2], the system named is SE-spezifischer rosettenbildender Zellen. Put plainly: Rosette test (SE-specific rosettes). It is filed as in vivo, Maus (Inzuchtstamm CBA). As to conditions: oral administration. The text has this:
Der Nachweis immunstimulierender Effekte wurde weiterhin an der Maus (Inzuchtstamm CBA) und u. a. mit Hilfe folgender Nachweismethoden geführt: • Plaque-Test zum Nachweis von SE-spezifischen IgM- und IgG-PBZ, • Rosettentest.
Aus den Werten wird deutlich, daß die Verbindungen der allgemeinen Formel I einen gut nachweisbaren Effekt auf die Effektor-T-Lymphozyten-abhängige verzögerte Uberempfindlichkeit haben. Kontaktdermatitis-Werte ab 120 (≙ 20 % Steigerung gegenüber der Kontrolle) bzw. unter 80 werden als Nachweis eines stimulatorischen bzw. suppressorischen Effektes angesehen. Antikörpertiter-Differenzen von >+1 bzw. <-1 verdeutlichen den stimulatorischen bzw. suppressorischen Effekt der Substanzen auf die humorale Immunantwort. 2. Untersuchungen zur immunstimulierenden Wirkung • 2.1 Plaque-Test zum Nachweis von SE-spezifischen IgM- und IgG-PBZ Zur Prüfung immunstimulierender Effekte wurde u. a. auch der Einfluß von Verbindungen der allgemeinen Formel I auf die humorale Immunantwort an Mäusen des Inzuchtstammes CBA und mittels Hämolyse-Plaque-Test (HPT) untersucht. Diese Technik erlaubt die quantitative und getrennte Erfassung IgM- und IgG-Antikörper produzierender Zellen (= Plaque bildende Zellen; PBZ). Die Immunisierung mit Schaferythrozyten (SE) erfolgte am Tag 0, die Substanzapplikation (Tagesdosis 1.10^-5 mol/kg Körpermasse; peroral) an den Tagen -1 bis +3 (zur Erfassung der IgM-PBZ) bzw. an den Tagen +1 bis +5 (zur Erfassung der IgG-PBZ). • 2.2 Ergebnisse: Durch tägliche und über 5 Tage gehende Gabe von 2,0 mg der Verbindung gemäß Beispiel 1 pro kg Körpermasse konnte die Zahl der IgM-PBZ auf einen Durchschnittswert von 352 % im Vergleich zur Kontrolle (100 %) gesteigert werden. Die gleiche Form der Behandlung führte zu einer Erhöhung der IgG-PBZ auf 497 % (Kontrolle: 100 %). In beiden Fällen erwies sich die Differenz zur Kontrolle im t-Test mit p < 0,001 als signifikant. […]

The subject of test [3] is Influenza A/WSN. Put plainly: One-step replication cycle on permanent human kidney cell line.

For the compound `O=c1[nH]c2ccccc2c(=O)n1CCS` [Beispiel 1, 3-(2-Mercaptoethyl)-chinazolin-2,4(1H,3H)-dion], the “Plaquereduktion in % zur Viruskontrolle auf primären HEZ” value is on record as 98% in the test on Influenza A/WSN [1] (125 µmol/l); 100% with Influenza A/WSN [1] (250 µmol/l); 85% in the test with Influenza A/WSN [1] (31,25 µmol/l, 31.25 µM); 92% in the test on Influenza A/WSN [1] (62,5 µmol/l, 62.5 µM).

Take `COc1cc2[nH]c(=O)n(CCCS)c(=O)c2cc1OC` [Beispiel 2, 3-(3-Mercaptoprop-1-yl)-6,7-dimethoxychinazolin-2,4(1H,3H)-dion]: the “SE-spezifischer rosettenbildender Zellen” value in test [2] is “signifikante Förderung”. Moreover, the “% Hemmung” value with Influenza A/WSN [3] (Beispielreihe 5a, 125 µmol/l) is listed as 99,0%; in the test on Influenza A/WSN [3] (Beispielreihe 5a, 250 µmol/l), 99,99%; with Influenza A/WSN [3] (Beispielreihe 5a, 62,5 µmol/l, n. s. = nicht signifikant), “n. s”. Also, the “Senkung des Virusertrages im Vergleich zur unbehandelten Kontrolle” value in the test with Influenza A/WSN [3] (Beispielreihe 5a, 125 µmol/l) is 2,0 log10 TCID50/0,2 ml; in the test with Influenza A/WSN [3] (Beispielreihe 5a, 250 µmol/l) it was 6,17 log10 TCID50/0,2 ml; in the test on Influenza A/WSN [3] (Beispielreihe 5a, 31,25 µmol/l), 0 log10 TCID50/0,2 ml; in the test on Influenza A/WSN [3] (Beispielreihe 5a, 62,5 µmol/l), 0,5 log10 TCID50/0,2 ml.

The values are drawn from EP0454060B1, “3-(Mercaptoalkyl)-quinazoline-2,4(1H,3H)-diones, processes for their preparation, and pharmaceutical compositions” (priority 1990, dated 1991).
